Test results published in US20040161786A1, “Gene panel participative in hepatic stellate cell activation” (priority 2001, published 2004).

Tested on: hepatic fibrosis
Assay: Dimethylnitrosamine (DMN)-induced hepatic fibrosis, hydroxyproline (Hyp) in the liver
Assay type: in vivo
Conditions: SD male rat, DMN 10 mg/kg i.p. three times a week for four weeks, diet containing 0.5% L-cysteine vs 0.5% casein, 28th day
Description: Hepatic fibrosis was induced by intraperitoneally administering 10 mg/kg of dimethylnitrosamine (DMN) to a 6-week SD male rat three times a week for four weeks. Then, an experimental diet containing 0.5% of L-cysteine (Cys) as a subject and that containing 0.5% of casein as a control were fed from the initiation date of the DMN administration. On the 28th day from the initiation of the […] administration, the liver was sampled from the subject and the amount of hydroxyproline (Hyp) in the liver was measured as an index of hepatic fibrosis using an amino acid analyzer.

N[C@@H](CS)C(=O)O [cysteine, L-cysteine]
increase in Hyp in the liver (index of hepatic fibrosis): significantly suppressed
